According to patent publication US10597388B2, “Pyridazinone herbicides” (FMC CORPORATION, priority 2014, dated 2020):
Where two headings read alike, the source gives them in different places.

How the values were obtained:
Type in all cases: in vivo
rice (Oryza sativa) = assay: Test B flooded paddy test; conditions: 250 g ai/ha, Flood, visual rating on scale of 0 to 100 where 0 is no effect and 100 is complete control, 13 to 15 d after treatment; for plant injury at 250 g/ha: Oryza sativa, 360 h, read-out: Plant response rating, Rice
Procedure, shortened: (§1)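 Plants grown to the 2-leaf stage. At treatment, pots were flooded to 3 cm above the soil, compound was applied directly to the paddy water, and that depth was held throughout. After 13 to 15 d in the greenhouse, response was rated visually against controls on a 0 (no effect) to 100 (complete control) scale.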

[1] = test system: sedge, umbrella (small-flower umbrella sedge, Cyperus difformis); assay: Test B flooded paddy test; conditions: 250 g ai/ha, Flood, visual rating on scale of 0 to 100 where 0 is no effect and 100 is complete control, 13 to 15 d after treatment; for pest or weed control at 250 g/ha: Cyperus difformis, 360 h, read-out: Plant response rating, Sedge, Umbrella
Procedure, shortened: as §1

[2] = test system: barnyardgrass (Echinochloa crus-galli); assay: Test B flooded paddy test; conditions: 250 g ai/ha, Flood, visual rating on scale of 0 to 100 where 0 is no effect and 100 is complete control, 13 to 15 d after treatment; for pest or weed control at 250 g/ha: Echinochloa crus-galli, 360 h, read-out: Plant response rating, Barnyardgrass
Procedure, shortened: as §1

[3] = test system: ducksalad (Heteranthera limosa); assay: Test B flooded paddy test; conditions: 250 g ai/ha, Flood, visual rating on scale of 0 to 100 where 0 is no effect and 100 is complete control, 13 to 15 d after treatment; for pest or weed control at 250 g/ha: Heteranthera limosa, 360 h, read-out: Plant response rating, Ducksalad
Procedure, shortened: as §1

[4] = test system: blackgrass (Alopecurus myosuroides); assay: Test A greenhouse herbicide test, postemergence; conditions: for pest or weed control at 125 g/ha / pest or weed control at 500 g/ha: Alopecurus myosuroides, post-emergence, 240 h; for pest or weed control at 125 g/ha: read-out: Plant response rating, Blackgrass; for pest or weed control at 500 g/ha: read-out: Blackgrass plant response rating
Procedure, shortened: (§2)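 Pot-grown plants (loam soil/sand blend), 2–10 cm tall at the one- to two-leaf stage, received postemergence sprays of formulated test chemical. After about 10 d in the greenhouse, injury was rated visually against untreated controls on a 0 (no effect) to 100 (complete control) scale.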

[5] = test system: galium (catchweed bedstraw, Galium aparine); assay: Test A greenhouse herbicide test, postemergence; conditions: for pest or weed control at 125 g/ha / pest or weed control at 500 g/ha: Galium, post-emergence, 240 h; for pest or weed control at 125 g/ha: read-out: Plant response rating, Galium; for pest or weed control at 500 g/ha: read-out: Galium plant response rating
Procedure, shortened: as §2

[6] = test system: chickweed (common chickweed, Stellaria media); assay: Test C greenhouse herbicide test, postemergence
Procedure, shortened: (§3)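 Visual injury scores (0–100, where 100 means complete control) were assigned 13 to 15 d after postemergence application, by comparison with untreated plants. Treated seedlings stood 2 to 18 cm tall, at the 1- to 4-leaf stage.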

[7] = test system: oat, wild (wild oat, Avena fatua); assay: Test C greenhouse herbicide test, postemergence
Procedure, shortened: as §3

[8] = 125 g ai/ha, visual rating after approx. 10 d, 0 to 100 scale (0 no effect, 100 complete control)
[9] = 500 g ai/ha, 0 to 100 scale, 0 is no effect, 100 is complete control
[10] = 125 g ai/ha, 0 to 100 scale where 0 is no effect and 100 is complete control
[11] = Postemergence, 31 g ai/ha, 0 to 100 scale (0 no effect, 100 complete control)
[12] = Postemergence, 125 g ai/ha, scale 0 to 100, 0 is no effect, 100 is complete control
[13] = Postemergence, 250 g ai/ha, scale 0 to 100, 0 no effect, 100 complete control, 13 to 15 d
[14] = postemergence, 62 g ai/ha, scale 0 to 100, 0 no effect, 100 complete control
[15] = 125 g ai/ha, 0 to 100 scale, 0 no effect, 100 complete control
[16] = 500 g ai/ha, visual rating after approx. 10 d, 0 to 100 scale (0 no effect, 100 complete control)
[17] = Postemergence, 31 g ai/ha, scale 0 to 100 (0 no effect, 100 complete control)
[18] = Postemergence, 62 g ai/ha, 0 to 100 scale (0 no effect, 100 complete control)
[19] = postemergence, 125 g ai/ha, scale 0 to 100, 0 no effect, 100 complete control
[20] = Postemergence, 16 g ai/ha, scale 0 to 100 (0 no effect, 100 complete control)

Row | Compound | plant injury at 250 g/ha (rice (Oryza sativa)) | pest or weed control at 250 g/ha [1] | pest or weed control at 250 g/ha [2] | pest or weed control at 250 g/ha [3] | pest or weed control at 500 g/ha [4, 9] | pest or weed control at 500 g/ha [5, 9] | Plant response rating, Rice (rice (Oryza sativa)) | Plant response rating, Sedge, Umbrella [1] | Plant response rating, Barnyardgrass [2] | Plant response rating, Ducksalad [3] | Plant response rating, Blackgrass [4, 10] | Plant response rating, Galium [5, 10] | Plant response rating, Oat, Wild [7, 13] | Plant response rating, Blackgrass [4, 16] | Plant response rating, Galium [5, 16] | Plant response rating, Oat, Wild [7, 17] | Oat, Wild plant response rating [7, 18] | Oat, Wild plant response rating [7, 19] | other results
1 | Cc1cc(C)c2oc(C)c(-c3c(O)c(C)nn(C)c3=O)c2c1 [Compound 12, 5-hydroxy-2,6-dimethyl-4-(2,5,7-trimethyl-3-benzofuranyl)-3(2H)-pyridazinone] | 0% | 0% | 0% | 30% | 50% | 90% | – | – | – | – | – | – | – | – | – | – | – | – | pest or weed control at 125 g/ha [4, 8]: 20%; pest or weed control at 125 g/ha [5, 8]: 60%
2 | CCOC(=O)Oc1c(C)nn(C)c(=O)c1-c1c(C)ccc2ccccc12 [Compound 73] | – | – | – | – | – | – | 0 | 0 | 0 | 0 | 90 | 100 | 95 | – | – | – | – | – | Blackgrass plant response rating [4, 9]: 90; Galium plant response rating [5, 9]: 100; Chickweed plant response rating [6, 11]: 90; Plant response rating, Chickweed [6, 12]: 95; Plant response rating, Chickweed [6, 13]: 95; Chickweed plant response rating [6, 14]: 90; Oat, Wild plant response rating [7, 11]: 75; Plant response rating, Oat, Wild [7, 12]: 95; Oat, Wild plant response rating [7, 14]: 90
3 | COC(=O)Oc1c(C)nn(C)c(=O)c1-c1c([N+](=O)[O-])ccc2ccccc12 [Compound 162] | – | – | – | – | – | – | 0 | 0 | 0 | 0 | – | – | 70 | 40 | 100 | 50 | 60 | 70 | Plant response rating, Blackgrass [4, 15]: 20; Plant response rating, Galium [5, 15]: 90; Plant response rating, Chickweed [6, 17]: 90; Chickweed plant response rating [6, 18]: 90; Plant response rating, Chickweed [6, 13]: 95; Chickweed plant response rating [6, 19]: 95
4 | CCc1sc2cc(C)cc(C)c2c1-c1c(O)c(C)nn(C)c1=O [Compound 19, 4-(2-ethyl-4,6-dimethylbenzo[b]thien-3-yl)-5-hydroxy-2,6-dimethyl-3(2H)-pyridazinone] | 0% | 0% | 0% | 0% | 0% | 80% | – | – | – | – | – | – | – | – | – | – | – | – | pest or weed control at 125 g/ha [4, 8]: 0%; pest or weed control at 125 g/ha [5, 8]: 30%
5 | COC(=O)Oc1cnn(C)c(=O)c1-c1c(C)ccc2ccccc12 [Compound 143] | – | – | – | – | – | – | 0 | 0 | 0 | 0 | 40 | 90 | – | 60 | 100 | 40 | 55 | 60 | Plant response rating, Chickweed [6, 20]: 30; Plant response rating, Chickweed [6, 17]: 45; Chickweed plant response rating [6, 18]: 70; Chickweed plant response rating [6, 19]: 80; Plant response rating, Oat, Wild [7, 20]: 30
6 | CCC(=O)Oc1c(C)nn(C)c(=O)c1-c1ccc(Br)c2ccccc12 [Compound 133] | – | – | – | – | – | – | 20 | 0 | 0 | 0 | 60 | 100 | 95 | 60 | 100 | 90 | 90 | 95 | –
7 | Cc1ccc2ccccc2c1-c1c(OC(=O)N2CCOCC2)c(Br)nn(C)c1=O [Compound 176] | – | – | – | – | – | – | 0 | 0 | 0 | 0 | – | – | – | 30 | 100 | 0 | 5 | 10 | Plant response rating, Blackgrass [4, 15]: 30; Plant response rating, Galium [5, 15]: 90; Plant response rating, Oat, Wild ([7]; Postemergence, 250 g ai/ha, scale 0 to 100, 0 is no effect, 100 is complete control): 35
8 | Cc1nn(C)c(=O)c(-c2c(C)oc3c(C)cccc23)c1O [Compound 9, 4-(2,7-dimethyl-3-benzofuranyl)-5-hydroxy-2,6-dimethyl-3(2H)-pyridazinone] | 0% | 0% | 0% | 0% | – | – | – | – | – | – | – | – | – | – | – | – | – | – | –
9 | COC(=O)Oc1c(Br)nn(C)c(=O)c1-c1c(C)ccc2ccccc12 [Compound 137] | – | – | – | – | – | – | 0 | 65 | 25 | 40 | 90 | 100 | 90 | 100 | 100 | 70 | 70 | 90 | –
10 | COc1nn(C)c(=O)c(-c2c(C)c(C)cc3ccccc23)c1O [Compound 46, 4-(2,3-dimethyl-1-naphthalenyl)-5-hydroxy-6-methoxy-2-methyl-3(2H)-pyridazinone] | 0% | 0% | 0% | 0% | 70% | 90% | – | – | – | – | – | – | – | – | – | – | – | – | pest or weed control at 125 g/ha [4, 10]: 20%; pest or weed control at 125 g/ha [5, 10]: 70%
11 | CC(=O)Oc1c(C)nn(C)c(=O)c1-c1c(C)oc2c(C)cccc12 [Compound 15, 5-(acetyloxy)-4-(2,7-dimethyl-3-benzofuranyl)-2,6-dimethyl-3(2H)-pyridazinone] | 0% | 0% | 0% | 20% | 50% | 90% | – | – | – | – | – | – | – | – | – | – | – | – | pest or weed control at 125 g/ha [4, 8]: 0%; pest or weed control at 125 g/ha [5, 8]: 70%
12 | COc1nn(C)c(=O)c(-c2c(C)ccc3ccccc23)c1OC(C)=O [Compound 138] | – | – | – | – | – | – | 0 | 0 | 0 | 0 | 80 | 100 | 90 | 90 | 100 | 50 | 80 | 80 | –
